These molecules were tested against HEK293 cells with stable expression of the GRIN1 gene and tetracycline-inducible expression of the GRIN2B gene (NMDA receptor, NR2B) (Homo sapiens, UniProt Q13224) (assay: Fluo-8 Ca2+ flux assay: reversal of Ro 25-6981-mediated suppression of the Ca2+ response to co-agonist (glutamate/glycine)). Details: reversal of the Ro 25-6981 suppression of the Ca2+ response to co-agonist (glutamate/glycine).
Format: cell-based
Also: test concentration or dose not given here.

HEK293 cells with stable expression of the GRIN1 gene and tetracycline-inducible expression of the GRIN2B gene (NMDA receptor, NR2B), sequence (Q13224 27-1484, other chains not shown): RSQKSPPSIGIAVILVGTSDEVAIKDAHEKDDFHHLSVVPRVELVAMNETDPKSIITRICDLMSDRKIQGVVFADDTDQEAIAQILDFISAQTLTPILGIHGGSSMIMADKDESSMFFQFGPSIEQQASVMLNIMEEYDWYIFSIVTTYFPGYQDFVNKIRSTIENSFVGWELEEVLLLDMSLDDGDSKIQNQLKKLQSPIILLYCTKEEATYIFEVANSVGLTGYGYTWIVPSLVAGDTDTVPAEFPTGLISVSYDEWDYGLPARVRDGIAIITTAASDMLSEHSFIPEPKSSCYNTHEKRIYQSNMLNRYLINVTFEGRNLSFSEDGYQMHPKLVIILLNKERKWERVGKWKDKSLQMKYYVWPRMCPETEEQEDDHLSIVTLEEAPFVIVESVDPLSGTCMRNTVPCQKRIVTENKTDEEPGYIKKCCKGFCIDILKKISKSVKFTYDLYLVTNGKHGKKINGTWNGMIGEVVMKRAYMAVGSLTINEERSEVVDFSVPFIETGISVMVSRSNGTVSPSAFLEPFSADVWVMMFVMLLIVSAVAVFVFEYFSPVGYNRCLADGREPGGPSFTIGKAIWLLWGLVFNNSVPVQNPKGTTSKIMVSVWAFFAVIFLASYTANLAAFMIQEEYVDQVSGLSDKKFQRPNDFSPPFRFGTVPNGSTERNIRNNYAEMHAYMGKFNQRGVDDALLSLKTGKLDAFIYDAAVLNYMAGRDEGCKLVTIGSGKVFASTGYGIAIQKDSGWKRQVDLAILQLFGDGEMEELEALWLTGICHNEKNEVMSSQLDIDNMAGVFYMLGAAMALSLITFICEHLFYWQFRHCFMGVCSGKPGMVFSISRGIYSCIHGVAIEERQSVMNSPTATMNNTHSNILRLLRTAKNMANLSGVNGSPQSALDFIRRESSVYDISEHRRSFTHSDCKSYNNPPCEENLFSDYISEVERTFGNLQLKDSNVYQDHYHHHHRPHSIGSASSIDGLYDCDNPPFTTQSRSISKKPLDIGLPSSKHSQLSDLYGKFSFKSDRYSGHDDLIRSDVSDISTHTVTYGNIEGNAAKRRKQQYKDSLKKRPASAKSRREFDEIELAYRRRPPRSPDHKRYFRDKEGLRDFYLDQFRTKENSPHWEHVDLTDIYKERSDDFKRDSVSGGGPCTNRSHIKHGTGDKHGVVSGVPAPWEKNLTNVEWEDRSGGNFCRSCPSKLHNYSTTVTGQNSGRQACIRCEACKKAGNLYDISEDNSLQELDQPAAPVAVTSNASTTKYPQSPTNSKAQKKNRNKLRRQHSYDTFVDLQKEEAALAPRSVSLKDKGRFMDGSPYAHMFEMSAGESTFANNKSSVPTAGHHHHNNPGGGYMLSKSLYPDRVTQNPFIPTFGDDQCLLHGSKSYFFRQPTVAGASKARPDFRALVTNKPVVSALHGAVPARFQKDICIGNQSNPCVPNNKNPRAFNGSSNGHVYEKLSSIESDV

Q: For `O=C(Cn1ccc2scc(-c3ccc(F)c(Cl)c3)c2c1=O)N1CC2C(C1)C2(F)F` (stereo not shown) [Example 65, 3-(3-chloro-4-fluorophenyl)-5-(2-(6,6-difluoro-3-azabicyclo[3.1.0]hex-an-3-yl)-2-oxoethyl)thieno[3,2-c]pyridin-4(5H)-one], which “Response Recovered (%)” value is on record?
A: 13%

Q: `O=C(Cn1ccc2scc(-c3ccc(Cl)c(Cl)c3)c2c1=O)N1CC2C(C1)C2(F)F` (stereo not shown) [Example 66, 3-(3,4-dichlorophenyl)-5-(2-(6,6-difluoro-3-azabicyclo[3.1.0]hex-an-3-yl)-2-oxoethyl)thieno[3,2-c]pyridin-4(5H)-one] was tested. Which “Response Recovered (%)” value did it give?
A: 26%

Q: With `O=C(Cn1ccc2scc(-c3ccc(F)c(Cl)c3)c2c1=O)N1CC2(COC2)C1` [Example 67, 3-(3-chloro-4-fluroophenyl)-5-(2-oxo-2-(2-oxa-6-azaspiro[3.3]heptan-6-yl)ethyl)thieno[3,2-c]pyridin-4(5H)-one] as the molecule, how does the “Response Recovered (%)” value read?
A: 4.4%

Q: For `O=C(Cn1ccc2scc(-c3ccc(Cl)c(Cl)c3)c2c1=O)N1CC2(COC2)C1` [Example 68, 3-(3,4-dichlorophenyl)-5-(2-oxo-2-(2-oxa-6-azaspiro[3.3]heptan-6-yl)ethyl)thieno[3,2-c]pyridin-4(5H)-one], which “Response Recovered (%)” value is on record?
A: 13%

Q: For `O=C(Cn1ccc2scc(-c3ccc(F)c(C(F)(F)F)c3)c2c1=O)N1CC2(COC2)C1` [Example 69, 3-(4-fluoro-3-(trifluoromethyl)phen-yl)-5-(2-oxo-2-(2-oxa-6-azaspiro[3.3]heptan-6-yl)ethyl)thieno[3,2-c]pyridin-4(5H)-one], which “Response Recovered (%)” value is on record?
A: 16%

Q: How did the “Response Recovered (%)” value turn out when `O=C(Cn1ccc2scc(-c3cnc(Cl)c(Cl)c3)c2c1=O)N1CC(F)(C2CC2)C1` [Example 70, 5-(2-(3-cyclopropyl-3-fluoroazetidin-1-yl)-2-oxoethyl)-3-(5,6-dichloropyridin-3-yl)thieno[3,2-c]pyridin-4(5H)-one] was run?
A: 64%

Q: For `O=C(Cn1ccc2scc(-c3ccc(F)c(Cl)c3)c2c1=O)N1CC2(CC2)C1` [Example 71, 3-(3-chloro-4-fluorophenyl)-5-(2-oxo-2-(5-azaspiro[2.3]hexan-5-yl)ethyl)thieno[3,2-c]pyridin-4(5H)-one], which “Response Recovered (%)” value is on record?
A: 46%

Q: With `O=C(Cn1ccc2scc(-c3ccc(F)c(C(F)(F)F)c3)c2c1=O)N1CC2C(C1)C2(F)F` (stereo not shown) [Example 72, 5-(2-(6,6-difluoro-3-azabicyclo[3.1.0]hex-an-3-yl)-2-oxoethyl)-3-(4-fluoro-3-(trifluoromethyl)phen-yl)thieno[3,2-c]pyridin-4(5H)-one] as the molecule, how does the “Response Recovered (%)” value read?
A: 37%

Q: Which “Response Recovered (%)” value does the source give for `CC1(NC(=O)OC(C)(C)C)CN(C(=O)Cn2ccc3scc(-c4ccc(Cl)c(Cl)c4)c3c2=O)C1` [Example 73, tert-butyl (1-(2-(3-(3,4-dichlorophenyl)-4-oxothieno[3,2-c]pyridin-5(4H)-yl)acetyl)-3-methylazetidin-3-yl)carbamate] here?
A: 9.8%

Q: Which “Response Recovered (%)” value does the source give for `CC1(NC(=O)OC(C)(C)C)CN(C(=O)Cn2ccc3scc(-c4ccc(F)c(Cl)c4)c3c2=O)C1` [Example 74, tert-butyl (1-(2-(3-(3-chloro-4-fluorophenyl)-4-oxothieno[3,2-c]pyridin-5(4H)-yl)acetyl)-3-methylazetidin-3-yl)carbamate] here?
A: 4.7%

Q: Which “Response Recovered (%)” value does the source give for `CCC1(F)CN(C(=O)Cn2ccc3scc(-c4cnc(Cl)c(Cl)c4)c3c2=O)C1` [Example 75, 3-(5,6-dichloropyridin-3-yl)-5-(2-(3-ethyl-3-fluoroazetidin-1-yl)-2-oxoethyl)thieno[3,2-c]pyridin-4(5H)-one] here?
A: 78%

Q: With `CC1(F)CN(C(=O)Cn2ccc3scc(-c4cnc(Cl)c(Cl)c4)c3c2=O)C1` [Example 76, 3-(5,6-dichloropyridin-3-yl)-5-(2-(3-fluoro-3-methylazetidin-1-yl)-2-oxoethyl)thieno[3,2-c]pyridin-4(5H)-one] as the molecule, how does the “Response Recovered (%)” value read?
A: 77%

Q: How did the “Response Recovered (%)” value turn out when `CC1(NC(=O)OC(C)(C)C)CN(C(=O)Cn2ccc3scc(-c4ccc(F)c(C(F)(F)F)c4)c3c2=O)C1` [Example 77, tert-butyl (1-(2-(3-(4-fluoro-3-(trifluoromethyl)phen-yl)-4-oxothieno[3,2-c]pyridin-5(4H)-yl)acetyl)-3-methylazetidin-3-yl)carbamate] was run?
A: −6.4%

Q: With `O=C(Cn1ccc2scc(-c3ccc(Cl)c(Cl)c3)c2c1=O)N1CC2(CC2)C1` [Example 78, 3-(3,4-dichlorophenyl)-5-(2-oxo-2-(5-azaspiro[2.3]hexan-5-yl)ethyl)thieno[3,2-c]pyridin-4(5H)-one] as the molecule, how does the “Response Recovered (%)” value read?
A: 53%

Q: With `CC(C)(C)OC(=O)N1CCC12CN(C(=O)Cn1ccc3scc(-c4ccc(F)c(Cl)c4)c3c1=O)C2` [Example 79, tert-butyl 6-(2-(3-(3-chloro-4-fluorophenyl)-4-oxothieno[3,2-c]pyridin-5(4H)-yl)acetyl)-1,6-diazaspiro[3.3]heptane-1-carboxylate] as the molecule, how does the “Response Recovered (%)” value read?
A: 18%

Q: Which “Response Recovered (%)” value does the source give for `O=C(Cn1ccc2scc(-c3ccc(F)c(C(F)(F)F)c3)c2c1=O)N1CC2(CC2)C1` [Example 80, 3-(4-fluoro-3-(trifluoromethyl)phen-yl)-5-(2-oxo-2-(5-azaspiro[2.3]hexan-5-yl)ethyl)thieno[3,2-c]pyridin-4(5H)-one] here?
A: 64%

Q: `O=C(Cn1ccc2scc(-c3ccc(F)c(Cl)c3)c2c1=O)N1CC(F)(CF)C1` [Example 81, 3-(3-chloro-4-fluorophenyl)-5-(2-(3-fluoro-3-(fluoromethyl)azetidin-1-yl)-2-oxoethyl)thieno[3,2-c]pyridin-4(5H)-one] was tested. Which “Response Recovered (%)” value did it give?
A: 140%

Q: `O=C(Cn1ccc2scc(-c3ccc(Cl)c(Cl)c3)c2c1=O)N1CC(F)(CF)C1` [Example 82, 3-(3,4-dichlorophenyl)-5-(2-(3-fluoro-3-(fluoromethyl)azetidin-1-yl)-2-oxoethyl)thieno[3,2-c]pyridin-4(5H)-one] was tested. Which “Response Recovered (%)” value did it give?
A: 140%

Q: `O=C(Cn1ccc2scc(-c3ccc(F)c(C(F)(F)F)c3)c2c1=O)N1CC(F)(CF)C1` [Example 83, 5-(2-(3-fluoro-3-(fluoromethyl)azetidin-1-yl)-2-oxoethyl)-3-(4-fluoro-3-(trifluoromethyl)phen-yl)thieno[3,2-c]pyridin-4(5H)-one] was tested. Which “Response Recovered (%)” value did it give?
A: 140%

Q: Which “Response Recovered (%)” value does the source give for `Cc1cc(-c2csc3ccn(CC(=O)N4CC(C)(F)C4)c(=O)c23)cnc1Cl` [Example 84, 3-(6-chloro-5-methylpyridin-3-yl)-5-(2-(3-fluoro-3-methylazetidin-1-yl)-2-oxoethyl)thieno[3,2-c]pyridin-4(5H)-one] here?
A: 39%

Q: How did the “Response Recovered (%)” value turn out when `CCC1(F)CN(C(=O)Cn2ccc3scc(-c4cnc(Cl)c(C)c4)c3c2=O)C1` [Example 85, 3-(6-chloro-5-methylpyridin-3-yl)-5-(2-(3-ethyl-3-fluoroazetidin-1-yl)-2-oxoethyl)thieno[3,2-c]pyridin-4(5H)-one] was run?
A: 16%

Q: For `Cc1cc(-c2csc3ccn(CC(=O)N4CC(F)(CF)C4)c(=O)c23)cnc1Cl` [Example 86, 3-(6-chloro-5-methylpyridin-3-yl)-5-(2-(3-fluoro-3-(fluoromethyl)azetidin-1-yl)-2-oxoethyl)thieno[3,2-c]pyridin-4(5H)-one], which “Response Recovered (%)” value is on record?
A: 17%

Q: Which “Response Recovered (%)” value does the source give for `Cc1cc(-c2csc3ccn(CC(=O)N4CC(C)(F)C4)c(=O)c23)cnc1F` [Example 87, 5-(2-(3-fluoro-3-methylazetidin-1-yl)-2-oxoethyl)-3-(6-fluoro-5-methylpyridin-3-yl)thieno[3,2-c]pyridin-4(5H)-one] here?
A: −4.2%

Q: With `CCC1(F)CN(C(=O)Cn2ccc3scc(-c4cnc(F)c(C)c4)c3c2=O)C1` [Example 88, 5-(2-(3-ethyl-3-fluoroazetidin-1-yl)-2-oxoethyl)-3-(6-fluoro-5-methylpyridin-3-yl)thieno[3,2-c]pyridin-4(5H)-one] as the molecule, how does the “Response Recovered (%)” value read?
A: 20%

Q: Which “Response Recovered (%)” value does the source give for `Cc1cc(-c2csc3ccn(CC(=O)N4CC(F)(CF)C4)c(=O)c23)cnc1F` [Example 89, 5-(2-(3-fluoro-3-(fluoromethyl)azetidin-1-yl)-2-oxoethyl)-3-(6-fluoro-5-methylpyridin-3-yl)thieno[3,2-c]pyridin-4(5H)-one] here?
A: 16%

Q: `Cc1ncc(-c2csc3ccn(CC(=O)N4CC(C)(F)C4)c(=O)c23)cc1Cl` [Example 90, 3-(5-chloro-6-methylpyridin-3-yl)-5-(2-(3-fluoro-3-methylazetidin-1-yl)-2-oxoethyl)thieno[3,2-c]pyridin-4(5H)-one] was tested. Which “Response Recovered (%)” value did it give?
A: 75%

Q: How did the “Response Recovered (%)” value turn out when `CCC1(F)CN(C(=O)Cn2ccc3scc(-c4cnc(C)c(Cl)c4)c3c2=O)C1` [Example 91, 3-(5-chloro-6-methylpyridin-3-yl)-5-(2-(3-ethyl-3-fluoroazetidin-1-yl)-2-oxoethyl)thieno[3,2-c]pyridin-4(5H)-one] was run?
A: 74%

Q: How did the “Response Recovered (%)” value turn out when `Cc1ncc(-c2csc3ccn(CC(=O)N4CC(F)(CF)C4)c(=O)c23)cc1Cl` [Example 92, 3-(5-chloro-6-methylpyridin-3-yl)-5-(2-(3-fluoro-3-(fluoromethyl)azetidin-1-yl)-2-oxoethyl)thieno[3,2-c]pyridin-4(5H)-one] was run?
A: 70%

Q: `CN(CC(F)(F)F)C(=O)Cn1ccc2scc(-c3ccc(F)c(Cl)c3)c2c1=O` [Example 93, 2-(3-(3-chloro-4-fluorophenyl)-4-oxothieno[3,2-c]pyridin-5(4H)-yl)-N-methyl-N-(2,2,2-trifluoroethyl)acetamide] was tested. Which “Response Recovered (%)” value did it give?
A: 4.1%

Q: Which “Response Recovered (%)” value does the source give for `CC1(N)CN(C(=O)Cn2ccc3scc(-c4ccc(Cl)c(Cl)c4)c3c2=O)C1` [Example 94, 5-(2-(3-amino-3-methylazetidin-1-yl)-2-oxoethyl)-3-(3,4-dichlorophenyl)thieno[3,2-c]pyridin-4(5H)-one] here?
A: 3.1%

Q: Which “Response Recovered (%)” value does the source give for `CC1(N)CN(C(=O)Cn2ccc3scc(-c4ccc(F)c(Cl)c4)c3c2=O)C1` [Example 95] here?
A: 1%

— patent publication US12162890B2 (Novartis AG, priority 2015, dated 2024)
